Measured values taken from patent US12264156B2, “Compounds and pharmaceutical compositions thereof for the treatment of diseases” (GALAPAGOS NV, priority 2018, dated 2025).
pEC50, pIC50: −log10 of the molar value.

Columns and labels:
[1] = system: LPS triggered IL-10 secretion in monocytes; test: Monocytes assay: LPS-triggered IL-10 (ELISA); type: cell-based, human; settings: LPS 200 ng/mL, supernatant after 4 h, maximal fold change vs LPS only
Protocol: (§1) SIK inhibition inhibits TNFα and increases IL-10 release in LPS triggered monocyte-derived macrophages (MdM) and dendritic cells (MdDCs) (Clark et al. 2012; Sundberg et al. 2014; Ozanne et al. 2015). This assay evaluates illustrative compounds of the invention for their inhibition of LPS-induced TNFα and LPS triggered IL-10 secretion in monocytes.
(§2) PBMCs are isolated from human blood samples (buffycoats). The buffy coat is aseptically transferred into a 50 mL Falcon tube, and diluted 1/2 in PBS. Falcon tubes are filled with 20 mL Lymphoprep™, on top of which 25 mL of the buffy coat is carefully added, tubes are centrifuged for 35 min at 400 g in temperature controlled centrifuge, without brake, at 25° C. PBMCs are aspirated from the white interface layer between sample and Lymphoprep™. PBMCs are washed five times in PBS. Cells are resuspended in RPMI 1640 complete medium supplemented with 10% FBS, 1% P/S, and cell density is determined using a hematologic analyzer (Sysmex XS-500i).
(§3) PBMCs are centrifuged at 300×g for 10 min and resuspended at a density of 1.0*10^7 cells/80 μL Miltenyi buffer (PBS, pH 7.4, 1% FBS, 2 mM EDTA).
(§4) Starting from this point of the protocol all steps are performed on ice. 20 μL of CD14+ micro-beads are added per 1.0*10^7 cells, the tube is mixed and incubated for 15 min in the fridge at 4° C. Cell suspension volume is adjusted to total volume of 100 mL using Miltenyi buffer, mixed gently and subsequently centrifuged for 10 min at 300×g. Supernantant is discarded and cell pellet is resuspended in 12 mL of Miltenyi buffer.
(§5) Four LS columns are placed in the MACS Separator (magnet) from Miltenyi Biotec, and are prewet by rinsing with 3 mL of MACS buffer per column. Three mL of cell suspension is added onto the column (max 1*10^8 of labelled cells/column), and columns are subsequently washed 3 times with 3 mL of Miltenyi buffer.
(§6) The columns are removed from the magnets, and 5 mL of Miltenyi buffer are added to the column to flush out the CD14+ fraction by pushing the plunger into the column. The flushed fractions are collected in a fresh 50 mL Falcon and volume is adjusted to 30 mL using Miltenyi buffer, cells are centrifuged for 10 min at 300×g. The obtained cell pellet is resuspended in 10 mL RPMI w/o FBS, and cell density is determined using a hematologic analyser (Sysmex XS-500i). 100 000 cells are seeded in 80 μL per well of a 96-well plate in RPMI 1640 medium supplemented with 10% FBS, 1% P/S.
(§7) A compound dilution plate is made in 100% DMSO by 3-fold dilution of 10 mM stock solution. An intermediate dilution plate (10× final concentration) is made by diluting the compound dilution plate 50-fold in RPMI medium.
(§8) 10 μL of the 10× final concentration compound is added to the cells and incubated for 1 h at 37° C. before addition of trigger. No trigger conditions/trigger conditions are spiked with equal final DMSO concentrations of 0.2% DMSO. 10 μL of 10×LPS (final conc. 200 ng/mL) solution are added to all wells except for the ‘no trigger wells’ where 10 μL medium is added. Supernatant is collected after 4 h of LPS triggering.
A Lumitrac 600 Greiner 384-well plate is coated with 40 μL of capture antibody (final concentration of 1 μg/mL in 1×PBS) and stored overnight at 4° C. The next day the plate is washed three times with PBST (PBS+0.05% Tween20) and once with PBS followed by the addition of 100 μL of blocking buffer (1% BSA−5% Sucrose) and plates are sealed and incubated for at least 4 h at RT. After washing the plate once with PBST and once with PBS, 40 μL of standard or sample are added (IL-10 standard curve is prepared using a 1/2 serial dilution starting from […]; dilutions are made in dilution buffer (PBS+1% BSA)). Plates are washed twice with PBST, and once with PBS, after which 35 μL of the detection antibody is added (final concentration 0.143 μg/mL diluted in dilution buffer) and plates are incubated for at least 2 h at RT. […]

[2] = system: LPS-induced TNFα in monocytes; test: Monocytes assay: LPS-triggered TNFα (ELISA); type: cell-based, human; settings: Homo sapiens, Monocyte, LPS 200 ng/mL, supernatant after 4 h
Protocol: as §1, §2, §3, §4, §5, §6, §7, §8
A Lumitrac 600 Greiner 384-well plate is coated with 40 μL of capture antibody (BD Pharmingen, Cat #551220) reaching a final concentration of 1 μg/mL in 1×PBS and stored overnight at 4° C.
The plate is then washed once with PBST (PBS+0.05% Tween20) and once with PBS followed by the addition of 100 μL of blocking buffer (1% Bovine Serum Albumin (BSA)−5% Sucrose) and plates are sealed and incubated for at least 4 h at RT. After washing the plate once with PBST and once with PBS, […]. Plates are washed twice with PBST, and once with PBS, after which 35 μL of the detection antibody is added (final concentration 0.25 μg/mL diluted in dilution buffer) and plates are incubated for at least 2 h at RT. […]

SIK2 = molecular target: T1, SIK2 (Homo sapiens, UniProt Q9H0K1); test: ADP-Glo kinase assay, SIK2; type: biochemical; settings: ADP-Glo SIK kinase assay
T1 construct: purchased ThermoFisher Scientific PV4792
Summary of the method: (§9)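 Wells with 1% DMSO or 10 μM staurosporine (final) define the control window. The kinase reaction with substrate and ATP runs 120 min at RT, followed by ADP-Glo detection: ATP depletion (40 min) and ADP-derived luminescence (30 min).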

SIK3 = molecular target: T2, SIK3 (Homo sapiens, UniProt Q9Y2K2); test: ADP-Glo kinase assay, SIK3; type: biochemical; settings: ADP-Glo SIK kinase assay
T2 construct: purchased SignalChem S12-11G-100
Summary of the method: as §9

SIK1 = molecular target: T3, SIK1 (Homo sapiens, UniProt P57059); test: ADP-Glo kinase assay, SIK1; type: biochemical; settings: ADP-Glo SIK kinase assay
T3 construct: purchased Carna Biosciences 02-131
Summary of the method: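 ADP-Glo, RT throughout. Enz/substrate + ATP, 120 min; ADP-Glo reagent 40 min (ATP depletion); detection reagent 30 min; luminescence read. Neg ctrl 1% DMSO, pos ctrl 10 μM staurosporine, final concs.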

[3] = system: LPS-induced TNFα in monocyte-derived macrophages (MdM); test: MdM assay: LPS-triggered TNFα (ELISA); type: cell-based, human; settings: Homo sapiens, Macrophage, 20 h, monocyte-derived macrophages, LPS 200 ng/mL, supernatant after 20 h; read-out: TNFα EC50
Protocol: This assay evaluates illustrative compounds of the invention for their inhibition of LPS-induced TNFα and LPS triggered IL-10 secretion in monocyte-derived macrophages.
as §2, with “PBS.” for “PBS. Cells are resuspended in RPMI 1640 complete medium supplemented with 10% FBS, 1% P/S, and cell density is determined using a hematologic analyzer (Sysmex XS-500i).”
as §3, §4, §5
as §6, with “XS-500i).” for “XS-500i). 100 000 cells are seeded in 80 μL per well of a 96-well plate in RPMI 1640 medium supplemented with 10% FBS, 1% P/S.”
On day 10, MdMs are triggered and compound is added.
as §7
Medium is carefully removed from cell plates using multichannel pipette, and replaced by 80 μL fresh medium. 10 μL of the 10× final concentration compound is added to the cells and incubated for 1 hour at 37° C. before addition of trigger. No trigger conditions/trigger conditions are spiked with equal final DMSO concentrations of 0.2% DMSO. 10 μL of 10×LPS (final conc. 200 ng/mL) solution are added to all wells except for the ‘no trigger wells’ where 10 μL medium is added. Supernatant is collected after 2 h (IL-10 determination) and after 20 h (TNFα determination) of LPS triggering.
The plate is then washed once with PBST (PBS+0.05% Tween20) and once with PBS followed by the addition of 100 μL of blocking buffer (1% Bovine Serum Albumin (BSA)−5% Sucrose) and plates are sealed and incubated for at least 4 h at RT. After washing the plate once with PBST and once with PBS, 40 μL of standard or sample are added (TNFα standard curve is prepared using a 1/2 serial dilution starting from […]; dilutions are made in dilution buffer (PBS+1% BSA)). Plates are washed twice with PBST, and once with PBS, after which 35 μL of the detection antibody is added (final concentration 0.25 μg/mL diluted in dilution buffer) and plates are incubated for at least 2 h at RT. Plates are washed twice with PBST, and once with PBS, where after 35 μL of Strep-HRP conjugate (0.5 μg/mL final concentration diluted in dilution buffer) is added. Plates are incubated in the dark, at RT for at least 45 min but no longer than 1 hour. Plates are washed twice with PBST, and once with PBS.

T1 sequence (Q9H0K1 whole entry): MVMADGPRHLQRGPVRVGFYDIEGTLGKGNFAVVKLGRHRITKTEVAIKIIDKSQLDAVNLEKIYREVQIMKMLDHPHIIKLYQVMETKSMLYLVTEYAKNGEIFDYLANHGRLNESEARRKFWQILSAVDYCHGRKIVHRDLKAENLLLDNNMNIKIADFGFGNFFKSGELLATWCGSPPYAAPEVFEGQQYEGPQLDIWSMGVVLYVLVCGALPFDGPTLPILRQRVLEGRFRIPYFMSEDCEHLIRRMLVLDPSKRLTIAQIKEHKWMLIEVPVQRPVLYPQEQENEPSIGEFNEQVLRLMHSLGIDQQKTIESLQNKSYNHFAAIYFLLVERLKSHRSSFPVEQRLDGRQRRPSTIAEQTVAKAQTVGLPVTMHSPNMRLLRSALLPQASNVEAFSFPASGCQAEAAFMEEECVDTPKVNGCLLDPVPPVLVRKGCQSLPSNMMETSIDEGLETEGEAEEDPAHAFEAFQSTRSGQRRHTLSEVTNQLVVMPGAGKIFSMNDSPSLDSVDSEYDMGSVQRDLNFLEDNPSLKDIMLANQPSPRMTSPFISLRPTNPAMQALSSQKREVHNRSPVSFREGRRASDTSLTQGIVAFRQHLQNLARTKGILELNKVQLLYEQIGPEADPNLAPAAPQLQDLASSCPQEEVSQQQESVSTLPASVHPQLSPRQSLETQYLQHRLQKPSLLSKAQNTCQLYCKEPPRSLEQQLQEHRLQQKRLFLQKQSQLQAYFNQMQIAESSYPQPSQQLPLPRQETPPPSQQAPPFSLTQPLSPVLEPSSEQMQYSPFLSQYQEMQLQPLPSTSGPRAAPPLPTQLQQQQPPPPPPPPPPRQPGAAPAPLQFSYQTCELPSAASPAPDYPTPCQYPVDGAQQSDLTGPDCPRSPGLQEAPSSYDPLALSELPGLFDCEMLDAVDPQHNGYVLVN
T2 sequence (Q9Y2K2 whole entry): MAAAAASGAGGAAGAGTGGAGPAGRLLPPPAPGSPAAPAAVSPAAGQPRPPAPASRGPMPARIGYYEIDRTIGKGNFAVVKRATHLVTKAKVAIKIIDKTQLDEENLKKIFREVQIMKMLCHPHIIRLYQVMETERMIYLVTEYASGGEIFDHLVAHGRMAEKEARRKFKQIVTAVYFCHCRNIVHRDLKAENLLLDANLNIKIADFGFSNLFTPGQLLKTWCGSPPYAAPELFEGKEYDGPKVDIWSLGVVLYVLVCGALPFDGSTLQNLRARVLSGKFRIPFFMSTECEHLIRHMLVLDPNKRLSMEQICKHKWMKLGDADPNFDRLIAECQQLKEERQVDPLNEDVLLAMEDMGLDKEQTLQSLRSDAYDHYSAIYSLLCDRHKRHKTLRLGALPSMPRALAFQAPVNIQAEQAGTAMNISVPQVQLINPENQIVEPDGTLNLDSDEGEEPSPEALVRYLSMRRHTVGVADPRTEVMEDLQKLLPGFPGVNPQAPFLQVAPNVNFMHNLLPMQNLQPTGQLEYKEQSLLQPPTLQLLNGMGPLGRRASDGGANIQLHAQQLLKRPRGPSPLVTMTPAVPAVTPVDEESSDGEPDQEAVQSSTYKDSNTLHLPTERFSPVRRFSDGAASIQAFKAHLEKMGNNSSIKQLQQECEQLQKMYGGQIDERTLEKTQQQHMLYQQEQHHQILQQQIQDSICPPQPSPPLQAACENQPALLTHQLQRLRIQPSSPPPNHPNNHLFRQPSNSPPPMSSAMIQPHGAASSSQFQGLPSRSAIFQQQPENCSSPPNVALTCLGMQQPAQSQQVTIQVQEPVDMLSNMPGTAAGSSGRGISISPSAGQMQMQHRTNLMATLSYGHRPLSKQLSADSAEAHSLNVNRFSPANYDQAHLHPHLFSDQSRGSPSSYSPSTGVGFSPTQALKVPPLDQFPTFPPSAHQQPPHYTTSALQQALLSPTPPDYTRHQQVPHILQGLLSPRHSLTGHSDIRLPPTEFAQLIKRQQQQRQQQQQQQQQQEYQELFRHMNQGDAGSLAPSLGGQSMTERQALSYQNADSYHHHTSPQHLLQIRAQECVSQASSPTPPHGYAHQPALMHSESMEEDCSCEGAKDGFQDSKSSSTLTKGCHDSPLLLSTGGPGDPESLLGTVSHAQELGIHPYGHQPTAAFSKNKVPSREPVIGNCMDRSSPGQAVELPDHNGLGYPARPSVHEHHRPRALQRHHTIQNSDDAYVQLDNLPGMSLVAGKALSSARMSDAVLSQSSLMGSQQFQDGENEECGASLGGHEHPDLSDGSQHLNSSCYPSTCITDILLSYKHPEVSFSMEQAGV
T3 sequence (P57059 whole entry): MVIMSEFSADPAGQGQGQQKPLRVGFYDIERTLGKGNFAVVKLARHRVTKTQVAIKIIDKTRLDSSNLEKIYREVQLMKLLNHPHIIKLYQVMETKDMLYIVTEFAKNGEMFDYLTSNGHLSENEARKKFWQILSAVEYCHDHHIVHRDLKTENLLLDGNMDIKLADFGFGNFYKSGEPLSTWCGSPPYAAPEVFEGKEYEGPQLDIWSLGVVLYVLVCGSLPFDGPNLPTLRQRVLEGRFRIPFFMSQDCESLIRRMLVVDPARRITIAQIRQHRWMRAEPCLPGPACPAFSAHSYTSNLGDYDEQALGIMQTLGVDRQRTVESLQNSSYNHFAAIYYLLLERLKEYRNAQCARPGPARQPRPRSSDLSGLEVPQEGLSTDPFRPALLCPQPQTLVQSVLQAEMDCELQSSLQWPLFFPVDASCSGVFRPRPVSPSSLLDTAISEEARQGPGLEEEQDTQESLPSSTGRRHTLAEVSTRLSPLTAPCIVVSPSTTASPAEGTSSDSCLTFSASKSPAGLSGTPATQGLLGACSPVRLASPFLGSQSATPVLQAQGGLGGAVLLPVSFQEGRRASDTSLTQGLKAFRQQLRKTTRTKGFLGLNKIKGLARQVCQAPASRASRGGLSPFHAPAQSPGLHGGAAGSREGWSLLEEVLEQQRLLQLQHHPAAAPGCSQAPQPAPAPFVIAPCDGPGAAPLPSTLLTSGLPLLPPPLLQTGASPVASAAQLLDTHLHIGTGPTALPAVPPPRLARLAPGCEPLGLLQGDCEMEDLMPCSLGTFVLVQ

pEC50 ([2]; 4 h)	pIC50 (SIK2)	pIC50 (SIK3)	pIC50 (SIK1)	pEC50 [3]	Compound	IL-10 FCmax median [1]	pEC50 [2]
7.00 to 10.00	8.00 to 11.00	8.00 to 11.00	7.00 to 8.00	–	COc1cc(-c2cnc3cc(OCCCN4CCC45COC5)ccn23)cc(OC(F)F)c1C(=O)NC1CC1 [compound 300, N-cyclopropyl-2-(difluoromethoxy)-6-methoxy-4-[7-[3-(6-oxa-1-azaspiro[3.3]heptan-1-yl)propoxy]imidazo[1,2-a]pyridin-3-yl]benzamide]	+++ (>4.5)	–
7.00 to 10.00	8.00 to 11.00	8.00 to 11.00	7.00 to 8.00	–	COc1cc(-c2cnc3cc(OCCCN4CCC(F)(C(N)=O)CC4)ccn23)cc(OC(F)F)c1C(=O)NC1CC1 [Cpd 361, l-[3-[3-[4-(cyclopropylcarbamoyl)-3-(difluoromethoxy)-5-methoxy-phenyl]imidazo[1,2-a]pyridin-7-yl]oxypropyl]-4-fluoro-piperidine-4-carboxamide]	++ (>1.5-4.5)	–
7.00 to 10.00	8.00 to 11.00	8.00 to 11.00	7.00 to 8.00	–	CCOC(=O)C1(O)CCN(CCCOc2ccn3c(-c4cc(OC)c(C(=O)NC5CC5)c(OC(F)F)c4)cnc3c2)CC1 [compound 381, ethyl 1-[3-[3-[4-(cyclopropylcarbamoyl)-3-(difluoromethoxy)-5-methoxy-phenyl]imidazo[1,2-a]pyridin-7-yl]oxypropyl]-4-hydroxy-piperidine-4-carboxylate]	++ (>1.5-4.5)	–
7.00 to 10.00	8.00 to 11.00	8.00 to 11.00	7.00 to 8.00	–	COc1cc(-c2cnc3cc(OCCCN4CC5CCC(C4)O5)ccn23)cc(OC(F)F)c1C(=O)NC1CC1 [compound 291, N-cyclopropyl-2-(difluoromethoxy)-6-methoxy-4-[7-[3-(8-oxa-3-azabicyclo[3.2.1]octan-3-yl)propoxy]imidazo[1,2-a]pyridin-3-yl]benzamide]	+++ (>4.5)	–

The remaining lines, values behind:

Compound	pEC50 ([2]; 4 h)	pIC50 (SIK2)	pIC50 (SIK3)	pIC50 (SIK1)	pEC50 [3]	IL-10 FCmax median [1]	pEC50 [2]
CCOC(=O)C1(C)CCN(CCCOc2ccn3c(-c4cc(OC)c(C(=O)NC5CC5)c(OC(F)F)c4)cnc3c2)CC1 [compound 380, ethyl 1-[3-[3-[4-(cyclopropylcarbamoyl)-3-(difluoromethoxy)-5-methoxy-phenyl]imidazo[1,2-a]pyridin-7-yl]oxypropyl]-4-methyl-piperidine-4-carboxylate]	7.00 to 10.00	8.00 to 11.00	8.00 to 11.00	7.00 to 8.00	–	++ (>1.5-4.5)	–
COc1cc(-c2cnc3cc(OCCCN4C5CCC4COC5)ccn23)cc(OC(F)F)c1C(=O)NC1CC1 [compound 292, N-cyclopropyl-2-(difluoromethoxy)-6-methoxy-4-[7-[3-(3-oxa-8-azabicyclo[3.2.1]octan-8-yl)propoxy]imidazo[1,2-a]pyridin-3-yl]benzamide]	–	8.00 to 11.00	8.00 to 11.00	7.00 to 8.00	–	+++ (>4.5)	7.00 to 10.00
COc1cc(-c2cnc3cc(OCCN4C[C@@H]5C[C@H]4CO5)ccn23)cc2c1C(=O)N(CC(F)(F)F)CC2 [compound 245, 8-methoxy-6-[7-[2-[(1S,4S)-2-oxa-5-azabicyclo[2.2.1]heptan-5-yl]ethoxy]imidazo[1,2-a]pyridin-3-yl]-2-(2,2,2-trifluoroethyl)-3,4-dihydro isoquinolin-1-one]	–	8.00 to 11.00	8.00 to 11.00	< 6.30	6.00 to 7.00	+++ (>4.5)	–
COc1cc(-c2cnc3cc(OCCC4CCCN4C(C)C)ccn23)cc(OC(F)F)c1C(=O)NC1CC1 (stereo not shown) [compound 301, N-cyclopropyl-2-(difluoromethoxy)-4-[7-[2-(1-isopropylpyrrolidin-2-yl)ethoxy]imidazo[1,2-a]pyridin-3-yl]-6-methoxy-benzamide]	7.00 to 10.00	8.00 to 11.00	8.00 to 11.00	7.00 to 8.00	–	+++ (>4.5)	–
